Reference: patent publication US20210386826A1, “Combination for Treating Cancer” (Pfizer Inc., priority 2018, published 2021)

Target: IL-2Rαβ (Homo sapiens, UniProt P01589+P14784)
Excerpt: The term “CD-122-biased cytokine agonist” (also referred to as an interleukin-2 receptor beta (ILRβ), selective agonist) as used herein, refers to an agonist that has a greater affinity for binding to IL-2Rβ than to IL-2Rαβ.

IL-2Rαβ, sequence (P01589 22-240 limits assumed): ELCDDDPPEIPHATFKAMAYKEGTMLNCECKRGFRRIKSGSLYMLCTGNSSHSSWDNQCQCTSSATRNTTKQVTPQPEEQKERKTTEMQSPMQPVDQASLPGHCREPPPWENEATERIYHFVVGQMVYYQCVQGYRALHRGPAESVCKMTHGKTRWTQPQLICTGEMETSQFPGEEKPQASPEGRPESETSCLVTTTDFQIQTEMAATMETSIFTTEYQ
IL-2Rαβ, sequence (P14784 27-240 limits assumed): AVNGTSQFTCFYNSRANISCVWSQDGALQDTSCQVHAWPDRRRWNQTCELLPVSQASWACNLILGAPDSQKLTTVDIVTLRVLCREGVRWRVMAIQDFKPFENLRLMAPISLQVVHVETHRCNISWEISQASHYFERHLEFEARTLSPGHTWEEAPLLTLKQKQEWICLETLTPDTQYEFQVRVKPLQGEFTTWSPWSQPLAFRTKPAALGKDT

- decrease in affinity to IL-2Rαβ relative to IL-2: ~60 fold
Substance: (2,7-(bis-methoxyPEG10kD-carboxyamide)(9H-fluorene-9-yl)methyl N-carbamate)6avg interleukin-2 [bempegaldesleukin]
